Assay results reported in ChEMBL document CHEMBL3351906, “Bioactive triterpenoid saponins and phenolic compounds against glioma cells” (Bioorg Med Chem Lett, 2014).

Assays:
[1] = tested on: U-251; experiment: Inhibition of cell proliferation of human U251 cells assessed as cell viability at 100 uM after 72 hrs by sulforhodamine B assay; format: functional; conditions: U-251, 72 h, read-out: Activity
[2] = tested on: C6; experiment: Inhibition of cell proliferation of rat C6 cells assessed as cell viability at 100 uM after 72 hrs by sulforhodamine B assay; format: functional; conditions: C6, 72 h, read-out: Activity

| Compound | viability at 100 µM [1] | viability at 100 µM [2] |
| --- | --- | --- |
| CC(C)=CCC[C@](C)(O)[C@H]1CC[C@]2(C)[C@@H]1[C@H](O)C[C@@H]1[C@@]3(C)CC[C@H](O[C@@H]4O[C@H](CO)[C@@H](O)[C@H](O)[C@H]4O[C@@H]4O[C@H](CO)[C@@H](O)[C@H](O)[C@H]4O)C(C)(C)[C@@H]3CC[C@]12C | 99.1% | 53.1% |
| CC(C)=CC/C=C(/C)[C@H]1CC[C@]2(C)[C@@H]1[C@H](O)C[C@@H]1[C@@]3(C)CC[C@H](O)C(C)(C)[C@@H]3[C@@H](O)C[C@]12C | 92.7% | 75.6% |
| CC1(C)CC[C@]2(C(=O)O)[C@H](O)C[C@]3(C)C(=CC[C@@H]4[C@@]5(C)CC[C@H](O)C(C)(C)[C@@H]5CC[C@]43C)[C@H]2C1 [ECHINOCYSTIC ACID] | 33.7% | 52.3% |
| COc1c(O)ccc(O)c1-c1cc(=O)c2c(O)cc(O)c(OC)c2o1 | 87.5% | 57.7% |
| CC(C)=CCC[C@](C)(O[C@@H]1O[C@H](CO[C@@H]2O[C@H](CO)[C@@H](O)[C@H](O)[C@H]2O)[C@@H](O)[C@H](O)[C@H]1O)[C@H]1CC[C@]2(C)[C@@H]1[C@H](O)C[C@@H]1[C@@]3(C)CC[C@H](O[C@@H]4O[C@H](CO)[C@@H](O)[C@H](O)[C@H]4O[C@@H]4O[C@H](CO)[C@@H](O)[C@H](O)[C@H]4O)C(C)(C)[C@@H]3CC[C@]12C [GINSENOSIDE RB1] | 76.1% | 79% |
| CC(C)=CCC[C@](C)(O[C@@H]1O[C@H](CO)[C@@H](O)[C@H](O)[C@H]1O)[C@H]1CC[C@]2(C)[C@@H]1[C@H](O)C[C@@H]1[C@@]3(C)CC[C@H](O[C@@H]4O[C@H](CO)[C@@H](O)[C@H](O)[C@H]4O)C(C)(C)[C@@H]3CC[C@]12C [GINSENOSIDE F2] | 64.6% | 117% |
| C/C=C(\C)C(=O)O[C@H]1[C@H](O)[C@]2(CO)[C@H](O)C[C@]3(C)C(=CC[C@@H]4[C@@]5(C)CC[C@H](O[C@@H]6O[C@H](C(=O)O)[C@@H](O[C@@H]7O[C@H](CO)[C@@H](O)[C@H](O)[C@H]7O)[C@H](O)[C@H]6O[C@@H]6O[C@H](CO)[C@@H](O)[C@H](O)[C@H]6O)[C@@](C)(CO)[C@@H]5CC[C@]43C)[C@@H]2CC1(C)C | 92.7% | 89.6% |
| CC(C)=CCC[C@@](C)(O)[C@H]1CC[C@]2(C)[C@@H]1[C@H](O)C[C@@H]1[C@@]3(C)CC[C@H](O[C@@H]4O[C@H](CO)[C@@H](O)[C@H](O)[C@H]4O[C@@H]4O[C@H](CO)[C@@H](O)[C@H](O)[C@H]4O)C(C)(C)[C@@H]3CC[C@]12C | 77.5% | 97.2% |
| CC(C)=CCC[C@](C)(O)[C@H]1CC[C@]2(C)[C@@H]1[C@H](O)C[C@@H]1[C@@]3(C)CC[C@H](O)C(C)(C)[C@@H]3[C@@H](O[C@@H]3O[C@H](CO)[C@@H](O)[C@H](O)[C@H]3O[C@@H]3OC[C@@H](O)[C@H](O)[C@H]3O)C[C@]12C | 108% | 59.3% |
| O=C(/C=C/c1ccc(O)c(O)c1)O[C@H](Cc1ccc(O)c(O)c1)C(=O)O [ROSMARINIC ACID] | 70.8% | 54.5% |
| C/C=C/C(=O)OC[C@H]1O[C@@H](O[C@H]2[C@H](O[C@H]3CC[C@]4(C)[C@H]5C[C@@H](O)[C@@H]6[C@@H]([C@](C)(CCC=C(C)C)O[C@@H]7O[C@H](CO[C@@H]8O[C@H](CO)[C@@H](O)[C@H](O)[C@H]8O)[C@@H](O)[C@H](O)[C@H]7O)CC[C@@]6(C)[C@]5(C)CC[C@H]4C3(C)C)O[C@H](CO)[C@@H](O)[C@@H]2O)[C@H](O)[C@@H](O)[C@@H]1O | 97.2% | 99.4% |
| CC(C)=CCC[C@](C)(O[C@@H]1O[C@H](CO[C@@H]2OC[C@@H](O)[C@H](O)[C@H]2O)[C@@H](O)[C@H](O)[C@H]1O)[C@H]1CC[C@]2(C)[C@@H]1[C@H](O)C[C@@H]1[C@@]3(C)CC[C@H](O[C@@H]4O[C@H](CO)[C@@H](O)[C@H](O)[C@H]4O[C@@H]4O[C@H](CO)[C@@H](O)[C@H](O)[C@H]4O)C(C)(C)[C@@H]3CC[C@]12C [GINSENOSIDE RB3] | 95.1% | 57.8% |
| CC(C)=CCC[C@](C)(O[C@@H]1O[C@H](CO)[C@@H](O)[C@H](O)[C@H]1O)[C@H]1CC[C@]2(C)[C@@H]1[C@H](O)C[C@@H]1[C@@]3(C)CC[C@H](O)C(C)(C)[C@@H]3[C@@H](O)C[C@]12C [GINSENOSIDE F1] | 80.9% | 92% |
| CC(C)=CCC[C@](C)(O)[C@H]1CC[C@]2(C)[C@@H]1[C@H](O)C[C@@H]1[C@@]3(C)CC[C@H](O)C(C)(C)[C@@H]3[C@@H](O[C@@H]3O[C@H](CO)[C@@H](O)[C@H](O)[C@H]3O[C@@H]3O[C@@H](C)[C@H](O)[C@@H](O)[C@H]3O)C[C@]12C [GINSENOSIDE RG2] | 103% | 96.5% |
| CC(C)=CCC[C@](C)(O[C@@H]1O[C@H](CO)[C@@H](O)[C@H](O)[C@H]1O)[C@H]1CC[C@]2(C)[C@@H]1[C@H](O)C[C@@H]1[C@@]3(C)CC[C@H](O[C@@H]4O[C@H](CO)[C@@H](O)[C@H](O)[C@H]4O)C(C)(C)[C@@H]3[C@@H](O)C[C@]12C | 92.5% | 65.6% |
| O=C(/C=C/c1ccc(O)c(O)c1)O[C@H]1[C@H](O)C[C@@](O)(C(=O)O)C[C@H]1O | 52.8% | 133% |
| CC(C)=CCC[C@](C)(O[C@@H]1O[C@H](CO[C@@H]2OC[C@H](O)[C@H](O)[C@H]2O)[C@@H](O)[C@H](O)[C@H]1O)[C@H]1CC[C@]2(C)[C@@H]1[C@H](O)C[C@@H]1[C@@]3(C)CC[C@H](O[C@@H]4O[C@H](CO)[C@@H](O)[C@H](O)[C@H]4O[C@@H]4O[C@H](CO)[C@@H](O)[C@H](O)[C@H]4O)C(C)(C)[C@@H]3CC[C@]12C [GINSENOSIDE RB2] | 77.5% | 80.9% |
| CC(C)=CCC[C@](C)(O[C@@H]1O[C@H](CO[C@@H]2O[C@@H](CO)[C@H](O)[C@H]2O)[C@@H](O)[C@H](O)[C@H]1O)[C@H]1CC[C@]2(C)[C@@H]1[C@H](O)C[C@@H]1[C@@]3(C)CC[C@H](O[C@@H]4O[C@H](CO)[C@@H](O)[C@H](O)[C@H]4O[C@@H]4O[C@H](CO)[C@@H](O)[C@H](O)[C@H]4O)C(C)(C)[C@@H]3CC[C@]12C [GINSENOSIDE RC] | 87.7% | 79% |
| O=C(/C=C/c1ccc(O)c(O)c1)O[C@H]1[C@H](O)C[C@](O)(C(=O)O)C[C@H]1OC(=O)/C=C/c1ccc(O)c(O)c1 | 119% | 46% |
| CC1(C)CC[C@]2(C(=O)O)CC[C@]3(C)C(=CC[C@@H]4[C@@]5(C)CC[C@H](O)C(C)(C)[C@@H]5CC[C@]43C)[C@@H]2C1 [OLEANOLIC_ACID] | 67.8% | 59.2% |
| CC(C)=CCC[C@](C)(O[C@@H]1O[C@H](CO)[C@@H](O)[C@H](O)[C@H]1O)[C@H]1CC[C@]2(C)[C@@H]1[C@H](O)C[C@@H]1[C@@]3(C)CC[C@H](O[C@@H]4O[C@H](CO)[C@@H](O)[C@H](O)[C@H]4O[C@@H]4O[C@H](CO)[C@@H](O)[C@H](O)[C@H]4O)C(C)(C)[C@@H]3[C@@H](O)C[C@]12C | 94.5% | 97.5% |
| C[C@@H]1O[C@@H](OC[C@H]2O[C@@H](Oc3c(-c4ccc(O)c(O)c4)oc4cc(O)cc(O)c4c3=O)[C@H](O)[C@@H](O)[C@@H]2O)[C@H](O)[C@H](O)[C@H]1O [RUTIN] | 61.5% | 62.1% |
| O=C(O)[C@H]1O[C@@H](Oc2cc3oc(-c4ccccc4)cc(=O)c3c(O)c2O)[C@H](O)[C@@H](O)[C@@H]1O [BAICALIN] | 91.8% | 80.4% |
| CC(C)=CCC[C@](C)(O[C@@H]1O[C@H](CO[C@H]2O[C@H](CO)[C@@H](O)[C@@H]2O)[C@@H](O)[C@H](O)[C@H]1O)[C@H]1CC[C@]2(C)[C@@H]1[C@H](O)C[C@@H]1[C@@]3(C)CC[C@H](O)C(C)(C)[C@@H]3[C@@H](O)C[C@]12C [GINSENOSIDE F5] | 102% | 92.8% |
| O=C(/C=C/c1ccc(O)c(O)c1)O[C@@H]1C[C@](O)(C(=O)O)C[C@@H](O)[C@H]1O [CHLOROGENIC ACID] | 56.6% | 77.4% |
| C/C=C(/C)C(=O)O[C@H]1[C@H](O)[C@]2(CO)[C@H](O)C[C@]3(C)C(=CC[C@@H]4[C@@]5(C)CC[C@H](O[C@@H]6O[C@H](C(=O)O)[C@@H](O[C@@H]7O[C@H](CO)[C@@H](O)[C@H](O)[C@H]7O)[C@H](O)[C@H]6O[C@@H]6O[C@H](CO)[C@@H](O)[C@H](O)[C@H]6O)[C@](C)(CO)[C@@H]5CC[C@]43C)[C@@H]2CC1(C)C | 94.6% | 90.7% |
| CC(C)=CCC[C@](C)(O[C@@H]1O[C@H](CO)[C@@H](O)[C@H](O)[C@H]1O)[C@H]1CC[C@]2(C)[C@@H]1[C@H](O)C[C@@H]1[C@@]3(C)CC[C@H](O[C@@H]4O[C@H](CO)[C@@H](O)[C@H](O)[C@H]4O[C@@H]4O[C@H](CO)[C@@H](O)[C@H](O)[C@H]4O)C(C)(C)[C@@H]3CC[C@]12C [GINSENOSIDE RD] | 78.4% | 102% |
| CC(C)=CCC[C@](C)(O[C@@H]1O[C@H](CO[C@@H]2O[C@H](CO)[C@@H](O)[C@H](O)[C@H]2O)[C@@H](O)[C@H](O)[C@H]1O)[C@H]1CC[C@]2(C)[C@@H]1[C@H](O)C[C@@H]1[C@@]3(C)CC[C@H](O[C@@H]4O[C@H](CO)[C@@H](O)[C@H](O)[C@H]4O)C(C)(C)[C@@H]3CC[C@]12C [GYPENOSIDE XVII] | 86.5% | 80.8% |
